Where “and” joins values, the source holds several entries; their conditions need not be identical. Identical values can stand only once.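 Dose response: 5 concentrations. Exposure: 48 h. Format: 96-well plates. Endpoint: linear interpolation; highest concentration if not reached. GI50 is the concentration that inhibits growth by half. TGI marks complete inhibition of growth.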
Tests used:
Test in all cases: NCI-60 cell line screen, 48 h
786-0 renal = test system: 786-0 renal
A498 renal = test system: A498 renal
A549 NSCLC = test system: A549 NSCLC
ACHN renal = test system: ACHN renal
CAKI-1 renal = test system: CAKI-1 renal
CCRF-CEM leukemia = test system: CCRF-CEM leukemia
COLO 205 colon = test system: COLO 205 colon
DLD-1 colon = test system: DLD-1 colon
DMS 114 small cell lung = test system: DMS 114 small cell lung
DMS 273 small cell lung = test system: DMS 273 small cell lung
EKVX NSCLC = test system: EKVX NSCLC
HCC-2998 colon = test system: HCC-2998 colon
HCT-15 colon = test system: HCT-15 colon
HL-60(TB) leukemia = test system: HL-60(TB) leukemia
HOP-18 NSCLC = test system: HOP-18 NSCLC
HOP-62 NSCLC = test system: HOP-62 NSCLC
HT29 colon = test system: HT29 colon
IGROV1 ovarian = test system: IGROV1 ovarian
K-562 leukemia = test system: K-562 leukemia
KM12 colon = test system: KM12 colon
KM20L2 colon = test system: KM20L2 colon
LOX IMVI melanoma = test system: LOX IMVI melanoma
LXFL 529 NSCLC = test system: LXFL 529 NSCLC
M14 melanoma = test system: M14 melanoma
M19-MEL melanoma = test system: M19-MEL melanoma
MALME-3M melanoma = test system: MALME-3M melanoma
MOLT-4 leukemia = test system: MOLT-4 leukemia
NCI-H226 lung = test system: NCI-H226 lung
NCI-H23 lung = test system: NCI-H23 lung
NCI-H460 lung = test system: NCI-H460 lung
NCI-H522 lung = test system: NCI-H522 lung
OVCAR-3 ovarian = test system: OVCAR-3 ovarian
OVCAR-4 ovarian = test system: OVCAR-4 ovarian
OVCAR-5 ovarian = test system: OVCAR-5 ovarian
OVCAR-8 ovarian = test system: OVCAR-8 ovarian
RPMI-8226 leukemia = test system: RPMI-8226 leukemia
RXF 393 renal = test system: RXF 393 renal
SF-268 CNS = test system: SF-268 CNS
SF-295 CNS = test system: SF-295 CNS
SF-539 CNS = test system: SF-539 CNS
SK-MEL-2 melanoma = test system: SK-MEL-2 melanoma
SK-MEL-28 melanoma = test system: SK-MEL-28 melanoma
SK-MEL-5 melanoma = test system: SK-MEL-5 melanoma
SK-OV-3 ovarian = test system: SK-OV-3 ovarian
SN12C renal = test system: SN12C renal
SNB-19 CNS = test system: SNB-19 CNS
SNB-75 CNS = test system: SNB-75 CNS
SW-620 colon = test system: SW-620 colon
TK-10 renal = test system: TK-10 renal
U251 CNS = test system: U251 CNS
UACC-257 melanoma = test system: UACC-257 melanoma
UACC-62 melanoma = test system: UACC-62 melanoma
UO-31 renal = test system: UO-31 renal
XF 498 CNS = test system: XF 498 CNS
BT-549 breast = test system: BT-549 breast
DU-145 prostate = test system: DU-145 prostate
HCT-116 colon = test system: HCT-116 colon
HOP-92 NSCLC = test system: HOP-92 NSCLC
HS 578T breast = test system: HS 578T breast
MCF7 breast = test system: MCF7 breast
MDA-MB-231 breast = test system: MDA-MB-231 breast
MDA-MB-435 = test system: MDA-MB-435
MDA-N = test system: MDA-N
NCI/ADR-RES ovarian = test system: NCI/ADR-RES ovarian
PC-3 prostate = test system: PC-3 prostate
SR leukemia = test system: SR leukemia
T-47D breast = test system: T-47D breast

## Cc1ccc(C)c(N=C2NC(=O)C(CC(=O)Nc3ccc(Cl)cc3Cl)S2)c1 (stereo not drawn)
786-0 renal
  TGI: > 100 µM
A498 renal
  TGI: 96.2 µM
A549 NSCLC
  TGI: > 100 µM
ACHN renal
  TGI: > 100 µM
CAKI-1 renal
  TGI: > 100 µM
CCRF-CEM leukemia
  TGI: > 100 µM
COLO 205 colon
  TGI: > 100 µM
DLD-1 colon
  TGI: > 100 µM
DMS 114 small cell lung
  TGI: > 100 µM
DMS 273 small cell lung
  TGI: > 100 µM
EKVX NSCLC
  TGI: > 100 µM
HCC-2998 colon
  TGI: > 100 µM
HCT-15 colon
  TGI: > 100 µM
HL-60(TB) leukemia
  TGI: > 100 µM
HOP-18 NSCLC
  TGI: > 100 µM
HOP-62 NSCLC
  TGI: > 100 µM
HT29 colon
  TGI: > 100 µM
IGROV1 ovarian
  TGI: > 100 µM
K-562 leukemia
  TGI: > 100 µM
KM12 colon
  TGI: > 100 µM
KM20L2 colon
  TGI: > 100 µM
LOX IMVI melanoma
  TGI: > 100 µM
LXFL 529 NSCLC
  TGI: > 100 µM
M14 melanoma
  TGI: > 100 µM
M19-MEL melanoma
  TGI: > 100 µM
MALME-3M melanoma
  TGI: > 100 µM
MOLT-4 leukemia
  TGI: > 100 µM
NCI-H226 lung
  TGI: > 100 µM
NCI-H23 lung
  TGI: > 100 µM
NCI-H460 lung
  TGI: > 100 µM
NCI-H522 lung
  TGI: 56.5 µM
OVCAR-3 ovarian
  TGI: > 100 µM
OVCAR-4 ovarian
  TGI: > 100 µM
OVCAR-5 ovarian
  TGI: > 100 µM
OVCAR-8 ovarian
  TGI: > 100 µM
RPMI-8226 leukemia
  TGI: > 100 µM
RXF 393 renal
  TGI: > 100 µM
SF-268 CNS
  TGI: > 100 µM
SF-295 CNS
  TGI: > 100 µM
SF-539 CNS
  TGI: > 100 µM
SK-MEL-2 melanoma
  TGI: > 100 µM
SK-MEL-28 melanoma
  TGI: > 100 µM
SK-MEL-5 melanoma
  TGI: > 100 µM
SK-OV-3 ovarian
  TGI: > 100 µM
SN12C renal
  TGI: > 100 µM
SNB-19 CNS
  TGI: > 100 µM
SNB-75 CNS
  TGI: > 100 µM
SW-620 colon
  TGI: > 100 µM
TK-10 renal
  TGI: > 100 µM
U251 CNS
  TGI: > 100 µM
UACC-257 melanoma
  TGI: > 100 µM
UACC-62 melanoma
  TGI: > 100 µM
UO-31 renal
  TGI: > 100 µM
XF 498 CNS
  TGI: 90.5 µM

## Cc1[nH]c(/C=C2\C(=O)Nc3ccccc32)c(C)c1CCC(=O)O
786-0 renal
  GI50: 44.1 µM
  TGI: > 100 µM
A498 renal
  GI50: 21.4 µM
  TGI: 61.7 µM and > 100 µM
A549 NSCLC
  GI50: 24.3 µM
  TGI: > 100 µM
ACHN renal
  TGI: > 100 µM
BT-549 breast
  GI50: 22.5 µM
  TGI: 73.9 µM and > 100 µM
CAKI-1 renal
  GI50: 15.9 µM
  TGI: 68.1 µM and > 100 µM
CCRF-CEM leukemia
  GI50: 28.3 µM
  TGI: > 100 µM
COLO 205 colon
  TGI: 43 µM and 45.9 µM
DU-145 prostate
  GI50: 35.4 µM
  TGI: > 100 µM
EKVX NSCLC
  GI50: 20.9 µM
  TGI: 89.9 µM and 97.4 µM
HCC-2998 colon
  TGI: > 100 µM
HCT-116 colon
  GI50: 25.9 µM
  TGI: > 100 µM
HCT-15 colon
  TGI: > 100 µM
HL-60(TB) leukemia
  GI50: 20.2 µM
  TGI: 45.8 µM
HOP-62 NSCLC
  GI50: 23.7 µM
  TGI: > 100 µM
HOP-92 NSCLC
  GI50: 12.7 µM
  TGI: 43.2 µM and 62.8 µM
HS 578T breast
  GI50: 9.45 µM
  TGI: 51.9 µM and > 100 µM
HT29 colon
  GI50: 27 µM
  TGI: > 80.8 µM
IGROV1 ovarian
  TGI: > 100 µM
K-562 leukemia
  TGI: > 100 µM
KM12 colon
  GI50: 7.79 µM
  TGI: 51.2 µM and > 100 µM
LOX IMVI melanoma
  GI50: 23.1 µM
  TGI: 75.9 µM and 89.2 µM
M14 melanoma
  GI50: 17 µM
  TGI: 49.3 µM and 58.8 µM
MALME-3M melanoma
  GI50: 10.7 µM
  TGI: 36.8 µM and 75.6 µM
MCF7 breast
  GI50: 23.9 µM
  TGI: > 100 µM
MDA-MB-231 breast
  GI50: 20.7 µM
  TGI: > 73.7 µM and 75.9 µM
MDA-MB-435
  GI50: 23.5 µM
  TGI: 84.2 µM and > 100 µM
MDA-N
  TGI: > 100 µM
MOLT-4 leukemia
  GI50: 26.5 µM
  TGI: 69.4 µM and 84.4 µM
NCI-H226 lung
  GI50: 15.2 µM
  TGI: 42.6 µM
NCI-H23 lung
  GI50: 20.3 µM
  TGI: 73.4 µM and > 100 µM
NCI-H460 lung
  GI50: 21.3 µM
  TGI: 57 µM and > 100 µM
NCI-H522 lung
  TGI: > 100 µM
NCI/ADR-RES ovarian
  TGI: > 100 µM
OVCAR-3 ovarian
  GI50: 28.8 µM
  TGI: > 100 µM and 73.3 µM
OVCAR-4 ovarian
  TGI: > 100 µM
OVCAR-5 ovarian
  GI50: 21.5 µM
  TGI: 81.8 µM and 97.4 µM
OVCAR-8 ovarian
  GI50: 34.7 µM
  TGI: > 100 µM
PC-3 prostate
  GI50: 31.4 µM
  TGI: > 100 µM
RPMI-8226 leukemia
  TGI: 65 µM and 75.3 µM
RXF 393 renal
  GI50: 19.2 µM
  TGI: 63.3 µM and 90.5 µM
SF-268 CNS
  GI50: 25.1 µM
  TGI: > 100 µM
SF-295 CNS
  GI50: 24.9 µM
  TGI: > 100 µM
SF-539 CNS
  GI50: 12.3 µM
  TGI: 42.2 µM
SK-MEL-2 melanoma
  TGI: 38.5 µM and 38.8 µM
SK-MEL-28 melanoma
  GI50: 25.4 µM
  TGI: 80 µM and 92.6 µM
SK-MEL-5 melanoma
  GI50: 19.8 µM
  TGI: 48.7 µM and 81.5 µM
SK-OV-3 ovarian
  GI50: 19.5 µM
  TGI: 59.5 µM and 80.6 µM
SN12C renal
  GI50: 24.7 µM
  TGI: > 100 µM
SNB-19 CNS
  GI50: 20.9 µM
  TGI: > 100 µM
SNB-75 CNS
  TGI: 56.1 µM and 59.8 µM
SR leukemia
  GI50: 19.7 µM
  TGI: 48.7 µM and 57.9 µM
SW-620 colon
  GI50: 18.8 µM
  TGI: 52.8 µM and 71.1 µM
T-47D breast
  TGI: > 100 µM
TK-10 renal
  GI50: 35 µM
  TGI: > 100 µM
U251 CNS
  GI50: 38.1 µM
  TGI: > 100 µM
UACC-257 melanoma
  GI50: 20.4 µM
  TGI: 63 µM and 81.1 µM
UACC-62 melanoma
  GI50: 17.7 µM
  TGI: 58.1 µM and 95.6 µM
UO-31 renal
  GI50: 11.6 µM
  TGI: 43.6 µM and > 100 µM

Reference: PubChem BioAssay (NCI)
